Data from US20220056018A1, “SREBP INHIBITORS COMPRISING A THIOPHENE CENTRAL RING” (Capulus Therapeutics, LLC, priority 2019, published 2022).

How the values were obtained:
SREBP = test: Reporter Screening Assay (SRE-luciferase reporter, HepG2); format: cell-based; details: Homo sapiens; SRE-luciferase reporter HepG2 cells, 24 hours, 0.01 uM to 10 uM; read-out: I: Reporter Screening Assay (Ave EC50 (nM))
In short: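 HepG2 SREBP reporter cells carrying an SRE-luciferase construct were serum-washed, then treated for 24 h at 37° C with compounds (0.01 uM to 10 uM) in phenol-free medium with varying FBS levels. Total luminescence was read after a 30 min incubation with luciferase substrate.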

JIMT1 = test: Cancer cell growth inhibition; format: cell-based; details: Homo sapiens, JIMT-1; JIMT1 (breast), 72 hr treatment
Procedure: (§1) The ability of select compounds to inhibit cell growth in various cancer cell lines are evaluated. […] The cell lines shown in Table 2 have reduced growth by at least 50% at 10 uM or lower over 72 hr treatment in growth media. The cell lines shown in Table 3 have reduced growth by at least 50% with an IC50 greater than 10 uM.
(§2) Six 10-fold compound dilutions are prepared in DMSO (e.g. 10 mM, 1 mM, 100 uM, 10 uM, 1 uM, and 0.1 uM). Single data points are acquired for each concentration. The final concentration of DMSO is 0.1%. The duration of the treatment is 72 hr. Growth inhibition is measured using Sulforhodamine B in a protein staining assay. Activity of the agents is determined by evaluation the following parameters: IC50, GI50, IC10, TGI, LC50, IC90, and GI90 (where these values can be calculated).

OVCAR3 = test: Cancer cell growth inhibition; format: cell-based; details: Homo sapiens, OVCAR-3; OVCAR3 (ovary), 72 hr treatment
Procedure: as §1, §2

MV4-11 = test: Cancer cell growth inhibition; format: cell-based; details: Homo sapiens; MV4-11 (hematological), 72 hr treatment
Procedure: as §1, §2

HCT15 = test: Cancer cell growth inhibition; format: cell-based; details: Homo sapiens, HCT-15; HCT15 (colon), 72 hr treatment
Procedure: as §1, §2

ACHN = test: Cancer cell growth inhibition; format: cell-based; details: Homo sapiens; ACHN (kidney), 72 hr treatment
Procedure: as §1, §2

MT3 = test: Cancer cell growth inhibition; format: cell-based; details: MT-3; MT3 (breast), 72 hr treatment
Procedure: as §1, §2

SKBR3 = test: Cancer cell growth inhibition; format: cell-based; details: Homo sapiens, SK-BR-3; SKBR3 (breast), 72 hr treatment
Procedure: as §1, §2

SNB75 = test: Cancer cell growth inhibition; format: cell-based; details: Homo sapiens, SNB-75; SNB75 (brain), 72 hr treatment
Procedure: as §1, §2

MG63 = test: Cancer cell growth inhibition; format: cell-based; details: Homo sapiens, MG-63; MG63 (bone), 72 hr treatment
Procedure: as §1, §2

786O = test: Cancer cell growth inhibition; format: cell-based; details: Homo sapiens, 786-0; 786O (kidney), 72 hr treatment
Procedure: as §1, §2

SAOS2 = test: Cancer cell growth inhibition; format: cell-based; details: Homo sapiens, SAOS-2; SAOS2 (bone), 72 hr treatment
Procedure: as §1, §2

[1] = Stability in mouse liver microsomes; format: in vitro ADME
In short: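 Mouse liver microsomes, run by the same procedure as for human microsomes: 100 μM working solution pre-incubated with microsomes in 100 mM potassium phosphate buffer for 10 min at 37° C, then incubated 60 min at 37° C with NADPH cofactor, plus a no-cofactor control. Remaining compound quantified by LC-MS/MS.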

SMILES	EC50 (SREBP) [nM]	IC50 (JIMT1) [µM]	IC50 (OVCAR3) [µM]	IC50 (MV4-11) [µM]	IC50 (HCT15) [µM]	IC50 (ACHN) [µM]	IC50 (MT3) [µM]	IC50 (SKBR3) [µM]	IC50 (SNB75) [µM]	IC50 (MG63) [µM]	IC50 (786O) [µM]	IC50 (SAOS2) [µM]	percent parent remaining after 60 min in liver microsomes [1]
CC(C)(CO)c1cc(-c2csc(-c3ccc(NS(C)(=O)=O)cc3Cl)c2)ccn1 [Compound I-8909, N-(3-chloro-4-(4-(2-(1-hydroxy-2-methylpropan-2-yl)pyridin-4-yl)thiophen-2-yl)phenyl)methanesulfonamide]	< 249	< 10	< 10	< 10	> 10	< 10	< 10	< 10	> 10	> 10	< 10	> 10	+++ (>60.1 = +++)
CC(C)(O)Cc1cc(-c2csc(-c3ccc(NS(C)(=O)=O)cc3Cl)c2)ccn1 [Compound I-9004, N-(3-chloro-4-(4-(2-(2-hydroxy-2-methylpropyl)pyridin-4-yl)thiophen-2-yl)phenyl)methanesulfonamide]	< 249	< 10	< 10	< 10	< 10	< 10	< 10	< 10	> 10	> 10	< 10	> 10	+++ (>60.1 = +++)
CS(=O)(=O)Nc1ccc(-c2cc(-c3ccnc4c3OCCO4)cs2)c(Cl)c1 [Compound I-9017, N-(3-chloro-4-(4-(2,3-dihydro-[1,4]dioxino[2,3-b]pyridin-8-yl)thiophen-2-yl)phenyl)methanesulfonamide]	< 249	< 10	< 10	< 10	> 10	< 10	< 10	< 10	> 10	> 10	< 10	< 10	+++ (>60.1 = +++)
